For nine compounds, GI50 and TGI results are on record in PubChem BioAssay (NCI).

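Compound exposure: 48 hours, 5 concentrations, 96-well plates. GI50 marks 50% less growth. TGI marks complete inhibition of growth.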

Some test systems named below: MDA-MB-231 breast; SK-MEL-2 melanoma; SF-268 CNS; NCI-H522 lung; SNB-19 CNS; UACC-62 melanoma; M14 melanoma; U251 CNS; MCF7 breast; MALME-3M melanoma.
Experiment in all cases: NCI-60 cell line screen, 48 h

For `O=c1[nH]c(O)c(C=Nc2ccc(-c3nc4ccccc4o3)cc2)c(=O)[nH]1`, the GI50 in the experiment with MDA-MB-231 breast was 29.2 µM; in the experiment with SK-MEL-2 melanoma, 37.8 µM; in the experiment on SF-268 CNS, over 100 µM; in the experiment on NCI-H522 lung, 30.9 µM; in the experiment with SNB-19 CNS, over 100 µM; with UACC-62 melanoma, 35.6 µM. The values for the GI50 in the experiment on M14 melanoma and in the experiment on U251 CNS were 50.8 µM and 23.8 µM, respectively. Also, the TGI in the experiment on MDA-MB-231 breast, with SK-MEL-2 melanoma, in the experiment on SF-268 CNS, in the experiment on NCI-H522 lung, with SNB-19 CNS and with UACC-62 melanoma was over 100 µM throughout. The TGI in the experiment on M14 melanoma is over 100 µM; in the experiment with U251 CNS, 75.9 µM.
Take `CNCCCNc1ccnc2cc(Cl)ccc12`: the GI50 was 12.7 µM in the experiment on MDA-MB-231 breast; 23.4 µM with MCF7 breast; 19.6 µM with SK-MEL-2 melanoma; 22.6 µM in the experiment with SF-268 CNS; 36.1 µM in the experiment on SNB-19 CNS; 20.1 µM in the experiment with UACC-62 melanoma. For the same compound, the figures for the GI50 with M14 melanoma, in the experiment with U251 CNS and with MALME-3M melanoma were 16 µM, 22.5 µM and 19.7 µM, respectively. The TGI was 56.5 µM in the experiment on MDA-MB-231 breast; 83.8 µM with MCF7 breast; 37.9 µM in the experiment with SK-MEL-2 melanoma; 98.3 µM with SF-268 CNS; over 100 µM in the experiment on SNB-19 CNS; 45.7 µM in the experiment with UACC-62 melanoma. Further, the TGI with M14 melanoma was found to be 34.4 µM; with U251 CNS, 62.4 µM; in the experiment with MALME-3M melanoma it was 40.5 µM.
`COCOCCC#CCO`: the TGI in the experiment with SK-MEL-2 melanoma, in the experiment with SF-268 CNS, with NCI-H522 lung, with SNB-19 CNS, in the experiment on UACC-62 melanoma and in the experiment on M14 melanoma was over 100 µM throughout. Further, the TGI in the experiment with U251 CNS and in the experiment on MALME-3M melanoma was over 100 µM throughout.
As to `Cc1cc2c(cc1C)[n+](=O)cc(C(=O)C/C(=N/NC(=S)NN)C(=O)Nc1cccc(C(F)(F)F)c1)n2[O-]`, the TGI in the experiment with SK-MEL-2 melanoma, with SF-268 CNS, in the experiment with NCI-H522 lung, with SNB-19 CNS, with UACC-62 melanoma and in the experiment with M14 melanoma was over 100 µM in each case. For the same compound, the TGI in the experiment with U251 CNS and in the experiment with MALME-3M melanoma was over 100 µM each time.
In the case of `COC(=O)c1c2c(c(C)[n+]([O-])c1C)C(=O)C(NCc1ccc(Br)cc1)=CC2=O`, the GI50 in the experiment with MDA-MB-231 breast was 1.41 µM; with MCF7 breast, 1.33 µM; in the experiment on SK-MEL-2 melanoma, 1.88 µM; with SF-268 CNS it was 2.21 µM; with UACC-62 melanoma, 1.17 µM; in the experiment on M14 melanoma, 1.14 µM. Also, the GI50 is 2.14 µM in the experiment with U251 CNS and 0.243 µM with MALME-3M melanoma. For the same compound, the TGI in the experiment with MDA-MB-231 breast worked out at 5.51 µM; in the experiment with MCF7 breast, 3.21 µM; with SK-MEL-2 melanoma, 6.12 µM; in the experiment on SF-268 CNS, 7.12 µM; with UACC-62 melanoma it was 2.69 µM; with M14 melanoma, 2.46 µM. Besides, the TGI turned out to be 6.01 µM in the experiment with U251 CNS and 0.8 µM with MALME-3M melanoma.
On to `O=C(c1ccc([N+](=O)[O-])cc1[N+](=O)[O-])N(/N=C/C=C/c1ccccc1)c1nnc(-c2ccccc2)c(-c2ccccc2)n1`, for which the TGI with SK-MEL-2 melanoma is 97.5 µM; in the experiment on SF-268 CNS, over 100 µM; with NCI-H522 lung it was 96.6 µM; with SNB-19 CNS, over 100 µM; with UACC-62 melanoma, 70.4 µM; in the experiment with M14 melanoma, over 100 µM. For the same compound, the TGI in the experiment with U251 CNS and in the experiment with MALME-3M melanoma was over 100 µM each time.
Consider `CCOC(=O)Cc1csc(Nc2ccccc2[N+](=O)[O-])n1`, for which the TGI in the experiment on SK-MEL-2 melanoma, in the experiment on SF-268 CNS, with NCI-H522 lung, with SNB-19 CNS, in the experiment with UACC-62 melanoma and in the experiment on M14 melanoma was over 100 µM each time. Besides, the TGI in the experiment on U251 CNS and in the experiment with MALME-3M melanoma was over 100 µM each time.
As to `CC12c3ccccc3C(OC=O)(c3ccccc31)C1(C)c3ccccc3C2(OC=O)c2ccccc21`, the TGI with SK-MEL-2 melanoma, in the experiment on SF-268 CNS, in the experiment on NCI-H522 lung, in the experiment with SNB-19 CNS, with UACC-62 melanoma and with M14 melanoma was over 100 µM throughout. In addition, the TGI in the experiment with U251 CNS and in the experiment with MALME-3M melanoma was over 100 µM throughout.
As for `O=c1[nH]c(=O)n(C2CC(O)C(CO)O2)cc1OS(=O)(=O)C(F)(F)F` (stereo not drawn), the TGI with SK-MEL-2 melanoma, in the experiment with SF-268 CNS, in the experiment on NCI-H522 lung, in the experiment on SNB-19 CNS, with UACC-62 melanoma and in the experiment on M14 melanoma was over 100 µM throughout. Besides, the TGI with U251 CNS and with MALME-3M melanoma was over 100 µM each time.
